This note sets out measurements from US20220162192A1 (ESCAPE Bio, Inc., priority 2019, published 2022).

Assay [1] deals with T1, Recombinant G2019S-LRRK2 protein (Homo sapiens, UniProt Q5S007, G2019S).
T1 construct: purchased Life Technologies PV4881
As to the kind of experiment: LanthaScreen Kinase Activity Assay (TR-FRET), G2019S-LRRK2. The assay is classed as biochemical. Particulars: class symbols; 25 μM ATP, 400 nM LRRKtide, 2.9 nM kinase, 60 min at room temperature. On the procedure: (§1) LRRK2 kinase activity was measured using a LanthaScreen™ Kinase Activity Assay from ThermoFisher Scientific. Recombinant wild type or G2019S-LRRK2 protein (Life Technologies, PR8604B or PV4881, respectively), was incubated with a fluorescein-labeled peptide substrate called LRRKtide that is based upon ezrin/radixin/moesin (ERM) (Life Technologies, PV4901) in the presence of ATP and serially diluted compound. After an incubation period of 1 hr, the phosphotransferase activity was stopped and a terbium-labelled anti-pERM antibody (Life Technologies, PV4899) was added to detect the phosphorylation of LRRKtide by measuring the time resolved-Forster resonant energy transfer (TR-FRET) signal from the terbium label on the antibody to the fluorescein tag on LRRKtide, expressed as the 520 nm/495 nm emission ratio. Compound-dependent inhibition of the TR-FRET signal was used to generate a concentration-response curve for IC50 determination.
(§2) The assay was carried out under the following protocol conditions: 1 mM compound in DMSO was serially diluted 1:3, 11 points in DMSO with a Biomek FX and 0.1 μL of the diluted compound was subsequently stamped into the assay plate (384-well format Lumitrac 200, Greiner, 781075) with an Echo Labcyte such that the final compound concentration in the assay was 10 μM to […]. Subsequently, 5 μL of 2× kinase solution (2.9 nM final concentration) was added to the assay plate in assay buffer composed of 50 mM Tris pH 8.5 (Sigma, T6791), 5 mM MgCl2 (Fluka, 63020), 1 mM EGTA (Sigma, E3889), 0.01% BRIJ-35 (Sigma, P1254) and 2 mM DTT. The reaction was started by addition of 2×ATP/LRRKtide solution in assay buffer such that the final concentration was 400 nM LRRKtide and 25 μM ATP. After 60 min incubation at room temperature, the reaction was stopped by addition of […] containing a final concentration of 2 nM anti-pERM antibody and 10 mM EDTA. After a 30 min incubation at RT, the TR-FRET signal was measured on a Wallac 2104 EnVision® multilabel reader at an excitation wavelength of 340 nm and reading emission at 520 nm and 495 nm. The ratio of the 520 nm and 495 nm emission was used to analyze the data.

For assay [2], the target named is T2, Recombinant wild type LRRK2 protein (Homo sapiens, UniProt Q5S007).
T2 construct: purchased Life Technologies PR8604B
T2 sequence (Q5S007 whole entry): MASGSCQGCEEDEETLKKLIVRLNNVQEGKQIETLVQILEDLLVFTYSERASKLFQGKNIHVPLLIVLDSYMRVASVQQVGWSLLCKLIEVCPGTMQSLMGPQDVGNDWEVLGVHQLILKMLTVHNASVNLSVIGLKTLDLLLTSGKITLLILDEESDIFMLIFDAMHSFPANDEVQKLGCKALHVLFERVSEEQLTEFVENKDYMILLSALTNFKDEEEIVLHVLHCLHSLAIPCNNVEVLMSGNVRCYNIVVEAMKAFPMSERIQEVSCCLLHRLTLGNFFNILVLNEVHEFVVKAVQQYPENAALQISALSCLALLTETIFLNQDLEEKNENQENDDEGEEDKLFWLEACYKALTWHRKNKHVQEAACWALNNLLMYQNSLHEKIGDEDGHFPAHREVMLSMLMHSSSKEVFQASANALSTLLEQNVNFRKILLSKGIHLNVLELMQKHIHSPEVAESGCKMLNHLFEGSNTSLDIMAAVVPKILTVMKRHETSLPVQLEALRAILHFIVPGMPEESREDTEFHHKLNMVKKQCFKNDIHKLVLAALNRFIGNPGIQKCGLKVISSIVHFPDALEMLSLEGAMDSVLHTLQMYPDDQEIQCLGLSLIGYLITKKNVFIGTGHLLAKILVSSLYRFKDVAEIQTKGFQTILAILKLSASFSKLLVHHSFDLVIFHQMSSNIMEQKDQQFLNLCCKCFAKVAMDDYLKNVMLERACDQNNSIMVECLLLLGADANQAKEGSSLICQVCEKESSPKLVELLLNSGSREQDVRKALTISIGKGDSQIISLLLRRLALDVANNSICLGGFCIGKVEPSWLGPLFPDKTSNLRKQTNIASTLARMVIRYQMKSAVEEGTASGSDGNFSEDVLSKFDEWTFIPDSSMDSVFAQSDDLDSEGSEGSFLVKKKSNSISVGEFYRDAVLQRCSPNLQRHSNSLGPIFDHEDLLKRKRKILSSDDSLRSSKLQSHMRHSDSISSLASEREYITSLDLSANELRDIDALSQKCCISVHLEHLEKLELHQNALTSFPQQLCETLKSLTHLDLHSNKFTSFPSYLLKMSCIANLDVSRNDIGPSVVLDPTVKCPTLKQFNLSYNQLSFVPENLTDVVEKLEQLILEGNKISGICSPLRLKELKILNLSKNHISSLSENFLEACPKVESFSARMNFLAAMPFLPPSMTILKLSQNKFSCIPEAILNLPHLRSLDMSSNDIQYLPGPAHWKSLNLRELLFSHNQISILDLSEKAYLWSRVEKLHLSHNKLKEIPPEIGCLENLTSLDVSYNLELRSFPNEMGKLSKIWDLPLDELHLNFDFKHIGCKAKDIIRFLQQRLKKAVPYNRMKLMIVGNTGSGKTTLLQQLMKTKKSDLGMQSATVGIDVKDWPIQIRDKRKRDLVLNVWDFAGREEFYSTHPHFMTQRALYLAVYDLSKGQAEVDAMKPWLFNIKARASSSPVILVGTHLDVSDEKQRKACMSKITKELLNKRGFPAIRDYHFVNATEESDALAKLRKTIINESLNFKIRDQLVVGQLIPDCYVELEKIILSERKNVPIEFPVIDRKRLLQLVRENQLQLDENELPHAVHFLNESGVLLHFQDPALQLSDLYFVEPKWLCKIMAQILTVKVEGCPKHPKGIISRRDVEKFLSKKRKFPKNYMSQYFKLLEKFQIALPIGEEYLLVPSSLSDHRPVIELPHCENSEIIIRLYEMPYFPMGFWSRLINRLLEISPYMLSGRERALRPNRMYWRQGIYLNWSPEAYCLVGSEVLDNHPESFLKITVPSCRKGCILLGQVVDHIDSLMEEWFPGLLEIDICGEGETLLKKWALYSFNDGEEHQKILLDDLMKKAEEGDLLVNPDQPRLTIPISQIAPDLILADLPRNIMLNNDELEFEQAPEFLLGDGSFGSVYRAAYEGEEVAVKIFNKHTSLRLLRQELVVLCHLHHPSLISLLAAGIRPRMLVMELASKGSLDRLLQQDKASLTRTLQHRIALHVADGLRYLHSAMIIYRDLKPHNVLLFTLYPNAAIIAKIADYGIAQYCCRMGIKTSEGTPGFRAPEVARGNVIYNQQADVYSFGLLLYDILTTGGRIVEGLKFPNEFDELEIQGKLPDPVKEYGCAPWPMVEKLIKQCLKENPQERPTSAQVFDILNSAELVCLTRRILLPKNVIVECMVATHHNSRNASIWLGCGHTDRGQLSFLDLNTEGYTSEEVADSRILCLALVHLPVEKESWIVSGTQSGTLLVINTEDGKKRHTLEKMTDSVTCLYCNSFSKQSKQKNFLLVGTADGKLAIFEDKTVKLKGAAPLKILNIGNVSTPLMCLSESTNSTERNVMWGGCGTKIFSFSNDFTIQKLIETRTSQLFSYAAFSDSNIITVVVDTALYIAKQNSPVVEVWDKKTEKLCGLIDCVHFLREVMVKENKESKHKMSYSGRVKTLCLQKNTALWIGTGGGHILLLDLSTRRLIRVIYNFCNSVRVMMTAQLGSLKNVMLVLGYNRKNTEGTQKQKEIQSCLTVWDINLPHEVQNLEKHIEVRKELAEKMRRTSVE
Briefly: LanthaScreen Kinase Activity Assay (TR-FRET), wild type LRRK2. The assay is classed as biochemical. Particulars: 25 μM ATP, 400 nM LRRKtide, 2.9 nM kinase, 60 min at room temperature, read-out: LRRK2 WT IC50. The method, then: as §1, §2
Background: In TR-FRET formats the signal depends on donor and acceptor labels being close together.

Read-outs that look alike come from different tables or passages of the source. Where only a bound is given, the exact number is not on record here.

T1 sequence (Q5S007 whole entry G2019S): as the sequence (Q5S007 whole entry) above, with G2019S counted along it

With `Cn1ncc2c(F)c(C(=O)Nc3ccc4[nH]nc(-c5ncco5)c4c3)c(F)cc21` [Example 138, 4,6-Difluoro-1-methyl-N-(3-(oxazol-2-yl)-1H-indazol-5-yl)-1H-indazole-5-carboxamide], the values for the IC50 in assay [1] and in assay [2] (class symbols) were not above 100 nM and 100 to 1000 nM, respectively.
For the compound `Cn1ncc2c(F)c(C(=O)Nc3ccc4[nH]nc(-c5ccon5)c4c3)c(F)cc21` [Example 135, 4,6-Difluoro-N-(3-(isoxazol-3-yl)-1H-indazol-5-yl)-1-methyl-1H-indazole-5-carboxamide], the IC50 in assay [1] and in assay [2] (class symbols) was not above 100 nM in each case.
In the case of `Cn1ncc2c(F)c(C(=O)Nc3ccc4[nH]nc(N5CC(C(=O)O)C5)c4c3)c(F)cc21` [Example 142, 1-(5-(4,6-difluoro-1-methyl-1H-indazole-5-carboxamido)-1H-indazol-3-yl)azetidine-3-carboxylic acid], the IC50 in assay [1] was 1000 to 10000 nM; in assay [2] (numeric bound instead of class symbol) it was more than 10000 nM.
Take `Cc1c(C(=O)Nc2ccc3[nH]nc(-c4ccncc4)c3c2)ccc2[nH]nnc12` [Example 12, 4-Methyl-N-(3-(pyridin-4-yl)-1H-indazol-5-yl)-1H-benzo[d][1,2,3]triazole-5-carboxamide]: the IC50 in assay [1] was not above 100 nM; in assay [2] (class symbols) it was 100 to 1000 nM.
For `Cc1cccc(-c2n[nH]c3ccc(NC(=O)c4c(F)cc5c(cnn5C)c4F)cc23)n1` [Example 71, 4,6-Difluoro-1-methyl-N-(3-(6-methylpyridin-2-yl)-1H-indazol-5-yl)-1H-indazole-5-carboxamide] the same measures were not above 100 nM and 100 to 1000 nM.
For `O=C(Nc1ccc2[nH]nc(-c3ccoc3)c2c1)c1cnc2ccnn2c1` [Example 130, N-(3-(Furan-3-yl)-1H-indazol-5-yl)pyrazolo[1,5-a]pyrimidine-6-carboxamide], the IC50 in assay [1] and in assay [2] (class symbols) was 100 to 1000 nM in each case.
On to `O=C(Nc1ccc2[nH]nc(-c3ccoc3)c2c1)c1ccc2cnsc2c1` [Example 156, N-(3-(Furan-3-yl)-1H-indazol-5-yl)benzo[d]isothiazole-6-carboxamide], for which the IC50 in assay [1] and in assay [2] (class symbols) was not above 100 nM each time.
For the compound `O=C(Nc1ccc2[nH]nc(-c3ccoc3)c2c1)c1ccc2ncsc2n1` [Example 122, N-(3-(Furan-3-yl)-1H-indazol-5-yl)thiazolo[5,4-b]pyridine-5-carboxamide], the IC50 in assay [1] and in assay [2] (class symbols) was not above 100 nM each time.
As for `Cc1cc(-c2n[nH]c3ccc(NC(=O)c4c(F)cc5c(cnn5C)c4F)cc23)c(C)o1` [Example 101, N-(3-(2,5-Dimethylfuran-3-yl)-1H-indazol-5-yl)-4,6-difluoro-1-methyl-1H-indazole-5-carboxamide], the IC50 in assay [1] was not above 100 nM; in assay [2] (class symbols), 100 to 1000 nM.
On to `Cn1ncc2cc(C(=O)Nc3ccc4[nH]nc(-c5ccoc5)c4c3)ccc21` [Example 133, N-(3-(Furan-3-yl)-1H-indazol-5-yl)-1-methyl-1H-indazole-5-carboxamide], for which the 50% inhibitory concentration (IC50) in assay [1] and in assay [2] (class symbols) was not above 100 nM throughout.
For `Cc1cn2nc(C(=O)Nc3ccc4[nH]nc(-c5ccoc5)c4c3)cc2c(C)n1` [Example 163, N-(3-(Furan-3-yl)-1H-indazol-5-yl)-4,6-dimethylpyrazolo[1,5-a]pyrazine-2-carboxamide], the IC50 in assay [1] and in assay [2] (class symbols) was not above 100 nM throughout.
In the case of `O=C(Nc1ccc2[nH]nc(-c3ccoc3)c2c1)C1CCc2cncn2C1` (single isomer, unassigned) [Example 173a], the IC50 in assay [1] was not above 100 nM; in assay [2] (class symbols) it was 100 to 1000 nM.
Take `Cn1ncc2c(F)c(C(=O)Nc3ccc4[nH]nc(-c5ccno5)c4c3)c(F)cc21` [Example 137, 4,6-Difluoro-N-(3-(isoxazol-5-yl)-1H-indazol-5-yl)-1-methyl-1H-indazole-5-carboxamide]: the IC50 in assay [1] and in assay [2] (class symbols) was not above 100 nM each time.
With `Cc1n[nH]c2ccc(NC(=O)c3c(F)cc4c(cnn4C)c3F)cc12` [Example 51, 4,6-Difluoro-1-methyl-N-(3-methyl-1H-indazol-5-yl)-1H-indazole-5-carboxamide], the figures for the IC50 in assay [1] and in assay [2] (class symbols) were not above 100 nM and 100 to 1000 nM, respectively.
For `Cc1cc(-c2n[nH]c3ccc(NC(=O)c4c(F)cc5c(cnn5C)c4F)cc23)ccn1` [Example 37, 4,6-Difluoro-1-methyl-N-(3-(2-methylpyridin-4-yl)-1H-indazol-5-yl)-1H-indazole-5-carboxamide] the same measures were not above 100 nM and not above 100 nM.
For `Cn1cnc2ccc(C(=O)Nc3ccc4[nH]nc(-c5ccoc5)c4c3)cc21` [Example 131, N-(3-(Furan-3-yl)-1H-indazol-5-yl)-1-methyl-1H-benzo[d]imidazole-6-carboxamide] the same measures were not above 100 nM and not above 100 nM.
Take `Cc1cc2nn[nH]c2cc1C(=O)Nc1ccc2[nH]nc(Br)c2c1` [Example 15, N-(3-Bromo-1H-indazol-5-yl)-5-methyl-1H-benzo[d][1,2,3]triazole-6-carboxamide]: the results for the IC50 in assay [1] and in assay [2] (class symbols) were not above 100 nM and 1000 to 10000 nM, respectively.
For `Cn1ncc2c(F)c(C(=O)Nc3ccc4[nH]nc(NCc5ccccc5)c4c3)c(F)cc21` [Example 110, N-(3-(Benzylamino)-1H-indazol-5-yl)-4,6-difluoro-1-methyl-1H-indazole-5-carboxamide] the same measures were not above 100 nM and 100 to 1000 nM.
For `Cn1ncc2c(F)c(C(=O)Nc3ccc4[nH]nc(N5CCC5)c4c3)c(F)cc21` [Example 139, N-(3-(Azetidin-1-yl)-1H-indazol-5-yl)-4,6-difluoro-1-methyl-1H-indazole-5-carboxamide] the same measures were 100 to 1000 nM and 1000 to 10000 nM.
In the case of `Cc1n[nH]c2ccc(NC(=O)c3ccc4nnc(C)n4c3)cc12` [Example 8, 3-Methyl-N-(3-methyl-1H-indazol-5-yl)-[1,2,4]triazolo[4,3-a]pyridine-6-carboxamide], the IC50 in assay [1] and in assay [2] (class symbols) was 1000 to 10000 nM each time.
For `Cn1cnc2cc(C(=O)Nc3ccc4[nH]nc(-c5ccoc5)c4c3)ccc21` [Example 132, N-(3-(Furan-3-yl)-1H-indazol-5-yl)-1-methyl-1H-benzo[d]imidazole-5-carboxamide], the IC50 in assay [1] and in assay [2] (class symbols) was 100 to 1000 nM throughout.
`O=C(Nc1ccc2[nH]nc(-c3ccoc3)c2c1)c1nc2ccncc2s1` [Example 171, N-(3-(Furan-3-yl)-1H-indazol-5-yl)thiazolo[5,4-c]pyridine-2-carboxamide]: the IC50 in assay [1] and in assay [2] (class symbols) was not above 100 nM in each case.
Consider `Cn1ncc2c(F)c(C(=O)Nc3ccc4[nH]nc(-c5cccnc5)c4c3)c(F)cc21` [Example 32, 4,6-Difluoro-1-methyl-N-(3-(pyridin-3-yl)-1H-indazol-5-yl)-1H-indazole-5-carboxamide], for which the IC50 in assay [1] and in assay [2] (class symbols) was not above 100 nM each time.
Consider `COc1ccccc1-c1n[nH]c2ccc(NC(=O)c3c(C)cc4cnnn4c3C)cc12` [Example 46, N-(3-(2-Methoxyphenyl)-1H-indazol-5-yl)-5,7-dimethyl-[1,2,3]triazolo[1,5-a]pyridine-6-carboxamide], for which the IC50 in assay [1] was not above 100 nM; in assay [2] (class symbols) it was 100 to 1000 nM.
Consider `Cn1cc(-c2n[nH]c3ccc(NC(=O)c4c(F)cc5c(cnn5C)c4F)cc23)c(C(F)(F)F)n1` [Example 92, 4,6-Difluoro-1-methyl-N-(3-(1-methyl-3-(trifluoromethyl)-1H-pyrazol-4-yl)-1H-indazol-5-yl)-1H-indazole-5-carboxamide], for which the IC50 in assay [1] is not above 100 nM; in assay [2] (class symbols), 100 to 1000 nM.
For `Cn1ncc2c(F)c(C(=O)Nc3ccc4[nH]nc(-c5cocn5)c4c3)c(F)cc21` [Example 136, 4,6-Difluoro-1-methyl-N-(3-(oxazol-4-yl)-1H-indazol-5-yl)-1H-indazole-5-carboxamide] the same measures were not above 100 nM and 100 to 1000 nM.
In the case of `Cc1cnccc1-c1n[nH]c2ccc(NC(=O)c3c(F)cc4c(cnn4C)c3F)cc12` [Example 40, 4,6-Difluoro-1-methyl-N-(3-(3-methylpyridin-4-yl)-1H-indazol-5-yl)-1H-indazole-5-carboxamide], the IC50 lay in the range of 100 to 1000 nM in assay [1] and 1000 to 10000 nM in assay [2] (class symbols).

Broadly, the IC50 is the point on the concentration scale where inhibition reaches its midpoint.
